Test results as given in PubChem BioAssay AID1259407 (Chemical Carcinogenesis Research Information System (CCRIS), 2018).
Active and inactive are the calls of the source. No rule for the calls is given here.

System: CCRIS mutagenicity, Ames/micronucleus/aberration tests
Assay: CCRIS mutagenicity studies

In the case of `CN(C)N=O`, the mutagenic call (Test System: CHINESE HAMSTER V-79, Strain/Indicator: V-79/OUABAIN, Metabolic Activation: RAT, HEPATOCYTES, BUTYLATED HYDROXYANISOLE, Method: STANDARD PLATE) is reported as “active; positive”, the mutagenic call (Test System: CHINESE HAMSTER V-79, Strain/Indicator: V-79/OUABAIN, Metabolic Activation: RAT, HEPATOCYTES, Method: STANDARD PLATE) is reported as “active; positive” and the mutagenic call (Test System: CHO/HGPRT, Strain/Indicator: CHO-K1-BH4, Metabolic Activation: MOUSE, IN VIVO, Method: HOST-MEDIATED) is reported as “active; positive”. For the same molecule, the mutagenic call (Test System: E. COLI, Strain/Indicator: WP2 (HCR), Metabolic Activation: RAT, LIVER, MICROSOMES, KANECHLOR 500, Method: PREINCUBATION) was “inactive; negative”, the mutagenic call (Test System: E. COLI, Strain/Indicator: WP2, Metabolic Activation: NONE, Method: STANDARD PLATE) was “active; positive” and the mutagenic call (Test System: E. COLI, Strain/Indicator: WP2, Metabolic Activation: RAT, LIVER, S-9, AROCLOR 1254, Method: STANDARD PLATE) was “active; positive”. For the same molecule, the mutagenic call (Test System: E. COLI, Strain/Indicator: WP2 UVRA, Metabolic Activation: HAMSTER, LIVER, S-9, AROCLOR 1254, Method: PREINCUBATION) was “inactive; negative”, the mutagenic call (Test System: E. COLI, Strain/Indicator: WP2 UVRA, Metabolic Activation: HAMSTER, LIVER, S-9, Method: PREINCUBATION) was “inactive; negative” and the mutagenic call (Test System: E. COLI, Strain/Indicator: WP2 UVRA, Metabolic Activation: MOUSE, LIVER, S-9, AROCLOR 1254, Method: PREINCUBATION) was “inactive; negative”. For the same molecule, the mutagenic call (Test System: E. COLI, Strain/Indicator: WP2 UVRA, Metabolic Activation: MOUSE, LIVER, S-9, Method: PREINCUBATION) was “inactive; negative”, the mutagenic call (Test System: E. COLI, Strain/Indicator: WP2 UVRA, Metabolic Activation: NONE, Method: PREINCUBATION) was “inactive; negative” and the mutagenic call (Test System: E. COLI, Strain/Indicator: WP2 UVRA, Metabolic Activation: NONE, Method: STANDARD PLATE) was “active; positive”. For the same molecule, the mutagenic call (Test System: E. COLI, Strain/Indicator: WP2 UVRA, Metabolic Activation: RAT, LIVER, S-9, AROCLOR 1254, Method: PREINCUBATION) was “inactive; negative”, the mutagenic call (Test System: E. COLI, Strain/Indicator: WP2 UVRA, Metabolic Activation: RAT, LIVER, S-9, AROCLOR 1254, Method: STANDARD PLATE) was “active; positive” and the mutagenic call (Test System: E. COLI, Strain/Indicator: WP2 UVRA, Metabolic Activation: RAT, LIVER, S-9, Method: PREINCUBATION) was “inactive; negative”. The mutagenic call (Test System: MOUSE LYMPHOMA, Strain/Indicator: L5178Y (TK+/TK-), Metabolic Activation: RAT, LIVER, S-9, AROCLOR 1254, Method: SUSPENSION/PLATE) was “active; positive”, the mutagenic call (Test System: MOUSE LYMPHOMA, Strain/Indicator: L5178Y (TK+/TK-), Metabolic Activation: RAT, LIVER, S-9, Method: SUSPENSION/PLATE) was “active; positive” and the mutagenic call (Test System: UDS HUMAN CELLS, Strain/Indicator: THY INCORP (NON-S-PHASE), Metabolic Activation: NONE, Method: AUTORADIOGRAPHY) was “active; positive”. For the same molecule, the mutagenic call (Test System: UDS HUMAN CELLS, Strain/Indicator: THY INCORP (NON-S-PHASE), Metabolic Activation: RAT, LIVER, S-9, Method: AUTORADIOGRAPHY) was “active; positive”, the mutagenic call (Test System: UDS HUMAN FIBROBLASTS, Strain/Indicator: THY INCORP (NON-S-PHASE), Metabolic Activation: NONE, Method: AUTORADIOGRAPHY) was “active; positive” and the mutagenic call (Test System: UDS HUMAN FIBROBLASTS, Strain/Indicator: THY INCORP (NON-S-PHASE), Metabolic Activation: RAT, LIVER, S-9, Method: LIQUID SCINTILLATION COUNTING) was “active; positive”. For the same molecule, the mutagenic call (Test System: UDS MONKEY HEPATOCYTES, Strain/Indicator: THY INCORP, Metabolic Activation: AROCLOR 1254, Method: AUTORADIOGRAPHY) was “active; positive”, the mutagenic call (Test System: UDS MONKEY HEPATOCYTES, Strain/Indicator: THY INCORP, Metabolic Activation: NONE, Method: AUTORADIOGRAPHY) was “active; positive” and the mutagenic call (Test System: UDS MOUSE HEPATOCYTES, Metabolic Activation: NONE, Method: IN VIVO-IN VITRO) was “active; positive”. The mutagenic call (Test System: UDS RAT HEPATOCYTES, Strain/Indicator: BROMODEOXYURIDINE INCORP, Metabolic Activation: NONE, Method: FLOW CYTOMETRIC ANALYSIS) was “active; positive”, the mutagenic call (Test System: UDS RAT HEPATOCYTES, Strain/Indicator: THY INCORP, Metabolic Activation: NONE, Method: AUTORADIOGRAPHY) was “active; positive” and the mutagenic call (Test System: UDS RAT HEPATOCYTES, Strain/Indicator: THY INCORP, Metabolic Activation: NONE, Method: LIQUID SCINTILLATION COUNTING) was “active; positive”. For the same molecule, the mutagenic call (Test System: UDS RODENT HEPATOCYTES, Strain/Indicator: THY INCORP (NON-S-PHASE), Method: AUTORADIOGRAPHY) was “active; positive”, the mutagenic call (Test System: UDS RODENT HEPATOCYTES, Strain/Indicator: THY INCORP (NON-S-PHASE), Method: LIQUID SCINTILLATION COUNTING) was “active; positive” and the mutagenic call (Test System: UDS, Strain/Indicator: HEPG2/THYMIDINE INCORPORATION, Metabolic Activation: NONE, Method: AUTORADIOGRAPHY) was “active; positive”.
